We go through seven compounds from patent US20130029983A1, “AMINOTHIENOPYRIDAZINE INHIBITORS OF TAU ASSEMBLY” (priority 2009, published 2013).

Data set [1] addresses T1, K18PL tau (Homo sapiens, UniProt P10636, P618L).
T1 construct: (K18PL; amino acids 244-369); made in house
Description: Heparin-induced K18PL tau fibrillization assay monitored by ThT fluorescence. Format: biochemical. The settings on record: Table 5; for IC50: read-out: K18PL (ThT) IC50 value; for Emax: read-out: K18PL (ThT) maximal percent inhibition achieved in the assay. A digest of the protocol:
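K18PL (30 μM stock, with 0.24 μM Alexa Red-labeled K18PL) plus 40 μM heparin and compound, fibrillized 6 h at 37 °C. Fibrils read by ThT (12.5 μM final, in 100 mM glycine pH 8.5, 1 h RT), ex 450/em 510 nm. Percent inhibition scaled between DMSO wells and non-fibrillizing K18 KD control wells.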

The target of data set [2] is T1, K18PL tau. Description: K18PL tau centrifugation (sedimentation) assay, SDS-PAGE densitometry. Format: biochemical. The settings on record: SDS-PAGE of soluble and insoluble fractions after centrifugation; for Emax: read-out: K18PL Sed. Assay, maximal percent inhibition of K18PL fibrillization. In short, it runs like this:
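Heparin-induced fibrillization of K18PL tau in sodium acetate buffer with test compound; mixtures were centrifuged and soluble versus insoluble K18PL quantified by SDS-PAGE densitometry. A repeat run centrifuged DMSO- and compound-treated mixtures for 30 min at time zero to remove pelletable material before incubation.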

The next data set addresses T2, full-length tau (tau40) (Homo sapiens, UniProt P10636).
T2 construct: Full length tau (Tau40; amino acids 1-441); made in house
Kind of data set: Tau40 fibrillization sedimentation assay. The format is biochemical. The settings on record: SDS-PAGE of soluble and insoluble fractions after centrifugation; for Emax: read-out: Tau40 Sed. Assay, maximal percent inhibition of tau40 fibrillization. Here is the method:
The determination of compound-induced effects on the amount of tau that remains soluble upon centrifugation, and EM visualization of tau species following incubation with test compounds, were as previously described (Crowe, A., Ballatore, C., Hyde, E., Trojanowski, J. Q., and Lee, V. M. Y. (2007) Biochemical and Biophysical Research Communications 358, 1-6). […]

A short description of data set [3]: Brain and plasma drug levels 1 h after i.p. administration (LC-MS/MS). The settings on record: mice; for B/P, ratio between brain/plasma drug level: 1 h after i.p. 5 mg/Kg. Format: in vivo. The procedure:
Test compounds underwent preliminary evaluations of brain penetration, in which 5 mg/Kg of each compound was administered intraperitoneally (i.p.) to a group of three normal mice; drug levels in brain and plasma were determined at a single time-point (1 h) by LC-MS/MS using pre-validated calibration curves. […] However, both esters appeared to have relatively short half-lives in plasma, as indicated by the limited amount of parent drug detected after 1 h from administration of the compounds. […] CNDR-51362 was selected for full PK analysis in which brain and plasma drug levels were determined at six time points (i.e., 30 min, 1 h, 2 h, 4 h, 8 h, and 16 h). The results from this experiment, illustrated in FIG. 6A, confirmed that the total B/P exposure ratio over 16 h is 1.6. […] Finally, in order to investigate the potential for ATPZ congeners to be orally administered, we evaluated brain and plasma level of CNDR-51362 and CNDR-51349 after oral administration of 5 mg/Kg.
Brain tissue was homogenized in 10 mM ammonium acetate, pH 5.7 (1:2; w/v) using a handheld sonic homogenizer. Plasma was obtained from blood that was collected into a 1.5 mL tube containing 0.5M EDTA solution and subjected to centrifugation for 10 min. at 4500 g at 4° C. Aliquots (50 μL) of brain homogenate or plasma were mixed with 0.2 mL of acetonitrile, centrifuged at 15,000 g, and the resulting supernatants were used for subsequent LC-MS/MS analysis. The LC-MS/MS system was comprised of an Aquity HPLC and a TQ MS that was controlled using MassLynx software (Waters Corporation, Milford, Mass., USA). Compounds were detected using multiple reaction monitoring (MRM) of their specific collision-induced ion transitions. Samples (5 μL) were separated on an Aquity BEH C18 column (1.7 μm, 2.1×50 mm) at 35° C. Operation was in positive electrospray ionization mode, with mobile phase A of 0.1% (v/v) formic acid, and B of either acetonitrile or methanol with 0.1% (v/v) formic acid at a flow rate of 0.6 mL/min using a gradient from 5% to 95% B over two min., followed by wash and re-equilibration steps. The MS was operated with a desolvation temperature of 450° C. and a source temperature of 150° C. Desolvation and source nitrogen gas flows were 900 L/hr and 50 L/hr, respectively. Source and MS/MS voltages were optimized for each compound using the MassLynx auto tune utility. Standard curves were generated for each compound from brain homogenate and plasma samples that had compound added at 4, 40, 400 and 4000 ng/mL and extracted as above. Peak areas were plotted against concentration and a 1/x weighted linear regression curve was used to quantify the tissue-derived samples using the average peak area from triplicate injections.

A short description of data set [4]: Turbidimetric solubility in fibrillization buffer. The format is physicochemical. The following applies: 100 mM NaOAc pH 7.0 fibrillization buffer, 1% DMSO. Here is the method:
Compounds were serially diluted in DMSO to achieve a 2.5 fold dilution series from 20 mM down 8 points to […] on a 384-well master plate (Costar 3672). Aliquots (2 μL) were transferred to a clear 96-well assay plate (Fisher 12-565-501) containing 198 μL fibrillization buffer (100 mM NaOAc pH 7.0) for a 100-fold dilution (200 μM down to 0.3 μM). The plate was incubated with agitation for 2.5 h, and the absorbance at 550, 600, 650 and 700 nm was measured on a Spectramax M5 spectrophotometer. DMSO (1%) in fibrillization buffer served as a control that was subtracted from each data point. The absorbances were averaged and the concentration at which the average absorbance rose above 0.03 AU was an indication of insoluble compound, with solubility limits reported as the previous concentration in the dilution series.

T1 sequence (P10636 561-686 P618L): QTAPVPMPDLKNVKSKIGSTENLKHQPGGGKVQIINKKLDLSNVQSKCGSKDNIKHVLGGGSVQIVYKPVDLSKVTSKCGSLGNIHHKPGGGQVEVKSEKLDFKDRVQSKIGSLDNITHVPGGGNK
T2 sequence (P10636 1-441 isoform P10636-8): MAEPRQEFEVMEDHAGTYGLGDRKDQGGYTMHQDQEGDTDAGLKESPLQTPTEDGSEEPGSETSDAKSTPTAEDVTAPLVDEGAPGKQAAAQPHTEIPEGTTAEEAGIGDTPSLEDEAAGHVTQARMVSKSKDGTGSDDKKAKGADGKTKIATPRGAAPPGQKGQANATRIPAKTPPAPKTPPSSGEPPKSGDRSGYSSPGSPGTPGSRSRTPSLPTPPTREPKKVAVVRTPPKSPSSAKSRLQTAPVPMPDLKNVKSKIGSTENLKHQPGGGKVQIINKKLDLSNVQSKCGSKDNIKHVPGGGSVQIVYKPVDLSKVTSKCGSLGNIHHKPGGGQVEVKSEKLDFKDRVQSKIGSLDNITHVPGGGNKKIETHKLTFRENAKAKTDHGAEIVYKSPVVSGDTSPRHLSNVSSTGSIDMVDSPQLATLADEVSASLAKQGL

`Nc1scc2c(C(=O)O)nn(-c3ccc(Cl)cc3)c(=O)c12` [CNDR-51348, 5-Amino-3-(4-chlorophenyl)-4-oxo-3,4-dihydrothieno[3,4-d]pyridazine-1-carboxylic acid] registered a melting point of more than 300 °C. Besides, at K18PL tau [1], the IC50 stood at 1.6 µM and the Emax worked out at 87%. Moreover, the Emax on K18PL tau [2] was found to be 79%. Besides, on full-length tau (tau40), the “Tau40 Sed. Assay, maximal percent inhibition of tau40 fibrillization” value was 62% and the Emax was 50 to 60%. Further, the Brain penetration entry in data set [3] (i.p. 5 mg/Kg, 1 h) is given as “lack of brain penetration”. Further, the “B/P, ratio between brain/plasma drug level” value in data set [3] is on record as 0.023.

Turning to `CN(C)C(=O)c1nn(-c2ccc(Cl)cc2)c(=O)c2c(N)scc12` [CNDR-51361, 5-Amino-3-(4-chlorophenyl)-N,N-dimethyl-4-oxo-3,4-dihydrothieno[3,4-d]pyridazine-1-carboxamide], at K18PL tau [1], the IC50 was determined as 5.3 µM and the Emax was found to be 88%. The “K18PL Sed. Assay, maximal percent inhibition of K18PL fibrillization” value on K18PL tau [2] is on record as 69%. Further, on full-length tau (tau40), the “Tau40 Sed. Assay, maximal percent inhibition of tau40 fibrillization” value was found to be 69% and the Emax was in the range of 50 to 60%. Moreover, in data set [4], the “Water Solubility” value came out at 32 µM. Besides, the “B/P, ratio between brain/plasma drug level” value in data set [3] was found to be 0.44.

Regarding `CCNC(=O)c1nn(-c2ccc(Cl)cc2)c(=O)c2c(N)scc12` [CNDR-51365, 5-Amino-3-(4-chlorophenyl)-N-ethyl-4-oxo-3,4-dihydrothieno[3,4-d]pyridazine-1-carboxamide], on K18PL tau [1], the IC50 came to 5.6 µM and the Emax stood at 91%. Further, the Emax at K18PL tau [2] came to 94%. At full-length tau (tau40), the “Tau40 Sed. Assay, maximal percent inhibition of tau40 fibrillization” value came to 57% and the Emax lay in the range of 50 to 60%. For the same compound, the “Water Solubility” value in data set [4] is 32 µM. Also, the “B/P, ratio between brain/plasma drug level” value in data set [3] was found to be 1.8.

Regarding `CCN(C)C(=O)c1nn(-c2ccc(Cl)cc2)c(=O)c2c(N)scc12` [CNDR-51366, 5-Amino-3-(4-chlorophenyl)-N-ethyl-N-methyl-4-oxo-3,4-dihydrothieno[3,4-d]pyridazine-1-carboxamide], the IC50 at K18PL tau [1] was 6.8 µM. The Emax on K18PL tau [1] is 91%; on K18PL tau [2], 62%; at full-length tau (tau40), 50 to 60%. On full-length tau (tau40), the “Tau40 Sed. Assay, maximal percent inhibition of tau40 fibrillization” value was determined as 58%. Also, the “Water Solubility” value in data set [4] came to 80 µM. The “B/P, ratio between brain/plasma drug level” value in data set [3] is 0.89.

Regarding `CNC(=O)c1nn(-c2ccc(Cl)cc2)c(=O)c2c(N)scc12` [CNDR-51367, 5-Amino-3-(4-chlorophenyl)-N-methyl-4-oxo-3,4-dihydrothieno[3,4-d]pyridazine-1-carboxamide], at K18PL tau [1], the concentration for half-maximal inhibition (IC50) was determined as 4.3 µM and the Emax came to 91%. In addition, at K18PL tau [2], the Emax was 68%. In addition, on full-length tau (tau40), the “Tau40 Sed. Assay, maximal percent inhibition of tau40 fibrillization” value came to 51% and the Emax lay in the range of 50 to 60%. In data set [4], the “Water Solubility” value is 13 µM. Moreover, in data set [3], the “B/P, ratio between brain/plasma drug level” value worked out at 0.49.

`CC(C)OC(=O)c1nn(-c2ccc(Cl)cc2)c(=O)c2c(N)scc12` [CNDR-51371, Isopropyl 5-amino-3-(4-chlorophenyl)-4-oxo-3,4-dihydrothieno[3,4-d]pyridazine-1-carboxylate] registered a melting point of 118 to 120 °C. On K18PL tau [1], the half-maximal inhibitory concentration (IC50) is 1.5 µM and the Emax is 81%. At K18PL tau [2], the Emax was 44%. At full-length tau (tau40), the “Tau40 Sed. Assay, maximal percent inhibition of tau40 fibrillization” value is given as 61% and the Emax lay within 50 to 60%. For the same compound, the “Water Solubility” value in data set [4] stood at 32 µM.

For `CC(C)NC(=O)c1nn(-c2ccc(Br)cc2)c(=O)c2c(N)scc12` [CNDR-51390, 5-Amino-3-(4-bromophenyl)-N-isopropyl-4-oxo-3,4-dihydrothieno[3,4-d]pyridazine-1-carboxamide], at K18PL tau [1], the IC50 stood at 2.2 µM and the Emax stood at 89%. For the same compound, the Emax at K18PL tau [2] is 58%. Further, on full-length tau (tau40), the “Tau40 Sed. Assay, maximal percent inhibition of tau40 fibrillization” value is listed as 55% and the Emax was in the range of 50 to 60%. In data set [4], the “Water Solubility” value was determined as 13 µM. Also, the “B/P, ratio between brain/plasma drug level” value in data set [3] was 2.0.

Broadly, the IC50 is the concentration that inhibits the measured activity by half. As a reminder, the melting point is the temperature, or range, at which the solid turns liquid.
